This note sets out measurements from ChEMBL document CHEMBL6178019, “Discovery of CYP1A1 Inhibitors for Host-Directed Therapy against Sepsis” (J Med Chem, 2025).

The test system of data set [1] is Staphylococcus aureus. Description: Antibacterial activity methicillin-resistant Staphylococcus aureus infected in C57BL/6 mouse model assessed as increase in survival at 25 mg/kg, ip preadministered for 12 hrs followed by bacterial infection and measured after 60 hrs by Kaplan Meier survival analysis. It counts as functional, organism-based. The conditions noted are these: time 72.0 hrs.

The subject of data set [2] is RAW264.7. Description: Induction of phagocytosis in mouse RAW264.7 cells assessed as upregulation of CD68 protein level by flow cytometric analysis. It counts as functional, cell-based. (In flow cytometry, cells or beads pass a laser one at a time.)
Data set [3] in a line: Toxicity in male C57BL/6 mouse assessed as effect on aspartate aminotransferase (AST) level in serum up to 100 mg/kg, ip measured after 12 hrs. Type of data set: organism-based. The conditions noted are these: in vivo.
Data set [4] concerns Acinetobacter baumannii. Nature of the data set: Antibacterial activity against Acinetobacter baumannii infected in C57BL/6 mouse assessed as increase in survival at 25 mg/kg, ip preadministered for 12 hrs followed by bacterial infection and measured after 60 hrs by Kaplan Meier survival analysis. Type of data set: functional, organism-based. The conditions noted are these: time 72.0 hrs.

Data set [5] deals with Staphylococcus aureus. Nature of the data set: Antibacterial activity against methicillin-resistant Staphylococcus aureus infected in C57BL/6 mouse model assessed as reversal of aspartate aminotransferase level in serum at 25 mg/kg, ip administered for 12 hrs by absorbance based microplate reader. It counts as functional, organism-based.
The subject of data set [6] is RAW264.7. Description: Induction of phagocytosis in zymosan A stimulated mouse RAW264.7 cells assessed as upregulation of CD68 mRNA expression at 5.0 uM incubated for 12 hrs by qRT-PCR analysis. Type of data set: functional, cell-based.
The subject of data set [7] is RAW264.7. Nature of the data set: Induction of phagocytosis in zymosan A stimulated mouse RAW264.7 cells assessed as upregulation of CD204 protein level at 5.0 uM incubated for 12 hrs by flow cytometric analysis. It counts as functional, cell-based.
Data set [8] can be described thus: Toxicity in male C57BL/6 mouse assessed as effect on blood urea nitrogen level in serum up to 100 mg/kg, ip measured after 12 hrs. The settings on record: in vivo. It counts as organism-based.
Data set [9] deals with Staphylococcus aureus. Nature of the data set: Antibacterial activity against methicillin-resistant Staphylococcus aureus infected in macrophage-depleted mouse assessed as bacterial clearance in PLF at 25 mg/kg, ip pretreated with clodronate liposomes for 48 hrs followed by compound administration for 12 hrs and measured after 24 hrs of bacterial infection. Type of data set: functional, organism-based. The settings on record: time 36.0 hrs.

The target of data set [10] is T1, CYP1A1 (Mus musculus, UniProt P00184).
T1 sequence (P00184 whole entry): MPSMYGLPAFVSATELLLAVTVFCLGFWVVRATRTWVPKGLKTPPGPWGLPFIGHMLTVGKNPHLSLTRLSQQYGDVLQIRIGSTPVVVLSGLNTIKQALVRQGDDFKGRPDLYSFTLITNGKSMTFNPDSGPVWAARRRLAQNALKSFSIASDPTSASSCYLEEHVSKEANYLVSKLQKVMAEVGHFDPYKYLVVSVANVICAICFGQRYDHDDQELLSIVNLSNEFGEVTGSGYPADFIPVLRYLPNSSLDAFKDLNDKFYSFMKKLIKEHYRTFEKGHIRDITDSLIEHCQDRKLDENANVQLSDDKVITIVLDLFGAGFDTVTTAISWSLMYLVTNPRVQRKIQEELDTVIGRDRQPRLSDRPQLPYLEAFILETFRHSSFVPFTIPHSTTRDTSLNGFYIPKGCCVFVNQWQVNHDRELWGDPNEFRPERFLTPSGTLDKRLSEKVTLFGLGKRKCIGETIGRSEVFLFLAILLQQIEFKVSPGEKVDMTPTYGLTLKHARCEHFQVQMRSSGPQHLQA
Nature of the data set: Inhibition of CYP1A1 in mouse RAW264.7 cells assessed as relative activity by measuring fold change at 500 nM incubated for 12 hrs by EROD assay relative to control. It counts as cell-based. The conditions noted are these: read-out: FC.

In data set [11] the test system is Staphylococcus aureus. Nature of the data set: Antibacterial activity against methicillin-resistant Staphylococcus aureus infected in C57BL/6 mouse model assessed as reversal of creatinine level in serum at 25 mg/kg, ip administered for 12 hrs by absorbance based microplate reader. It counts as functional, organism-based.
Data set [12] relates to RAW264.7. Description: Induction of phagocytosis in mouse RAW264.7 cells assessed as upregulation of CD68 mRNA expression by qRT-PCR analysis. Type of data set: functional, cell-based. (Real-time PCR tracks product formation cycle by cycle.)
Data set [13] deals with Pseudomonas aeruginosa. Nature of the data set: Antibacterial activity against Pseudomonas aeruginosa infected in C57BL/6 mouse assessed as increase in survival at 25 mg/kg, ip pretreated for 12 hrs followed by bacterial infection and measured after 60 hrs by Kaplan Meier survival analysis. The conditions noted are these: time 72.0 hrs. Type of data set: functional, organism-based.

In data set [14] the test system is RAW264.7. Description: Induction of phagocytosis in zymosan A stimulated mouse RAW264.7 cells assessed as upregulation of CD32 mRNA expression at 5.0 uM incubated for 12 hrs by qRT-PCR analysis. Type of data set: functional, cell-based.
Data set [15] concerns Staphylococcus aureus. Description: Antibacterial activity against methicillin-resistant Staphylococcus aureus infected in C57BL/6 mouse model assessed as reduction in bacterial dissemination from PLF to kidney at 25 mg/kg, ip preadministered for 12 hrs followed by bacterial infection and measured after 24 hrs. The conditions noted are these: time 36.0 hrs. It counts as functional, organism-based.

Data set [16] has as its system RAW264.7. Description: Induction of phagocytosis in mouse RAW264.7 cells assessed as upregulation of CD32 mRNA expression by qRT-PCR analysis. Type of data set: functional, cell-based.
Data set [17] deals with THP-1. Description: Induction of phagocytosis in human THP-1-derived macrophages infected with hexidine iodide labelled methicillin-R Staphylococcus aureus at 5 uM preincubated for 12 hrs followed by bacterial infection and measured after 1 hrs by fluorescence based confocal microscopic analysis. It counts as functional, cell-based. The conditions noted are these: time 13.0 hrs.

Data set [18] concerns Staphylococcus aureus. Nature of the data set: Antibacterial activity against methicillin-resistant Staphylococcus aureus infected in C57BL/6 mouse assessed as reduction in kidney damage at 25 mg/kg, ip administered for 12 hrs by H and E staining based analysis. Type of data set: functional, organism-based.
Data set [19] concerns the target T2, Cytochrome P450 1A1 (Homo sapiens, UniProt P04798).
T2 sequence (P04798 whole entry): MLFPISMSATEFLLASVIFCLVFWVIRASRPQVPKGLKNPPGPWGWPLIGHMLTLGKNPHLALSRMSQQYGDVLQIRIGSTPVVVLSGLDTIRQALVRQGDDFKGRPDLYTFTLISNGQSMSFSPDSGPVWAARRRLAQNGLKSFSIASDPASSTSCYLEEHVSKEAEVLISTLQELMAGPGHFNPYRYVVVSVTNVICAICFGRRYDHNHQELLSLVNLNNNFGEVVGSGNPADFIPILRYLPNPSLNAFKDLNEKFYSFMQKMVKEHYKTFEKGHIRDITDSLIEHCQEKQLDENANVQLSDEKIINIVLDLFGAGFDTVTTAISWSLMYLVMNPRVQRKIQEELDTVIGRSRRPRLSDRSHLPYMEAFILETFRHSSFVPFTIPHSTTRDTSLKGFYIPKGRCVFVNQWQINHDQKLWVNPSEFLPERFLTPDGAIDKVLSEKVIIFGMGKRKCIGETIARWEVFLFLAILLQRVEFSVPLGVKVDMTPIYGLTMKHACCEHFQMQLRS
Description: Inhibition of CYP1A1 in human Caco-2 cells assessed as relative activity by measuring fold change at 5.0 uM incubated for 12 hrs by EROD assay relative to control. It counts as cell-based. The conditions noted are these: caco-2, 12 h.

Data set [20] has as its system RAW264.7. Nature of the data set: Induction of phagocytosis in zymosan A stimulated mouse RAW264.7 cells assessed as upregulation of CD68 protein level at 5.0 uM incubated for 12 hrs by flow cytometric analysis. Type of data set: functional, cell-based.
The test system of data set [21] is Mus musculus. Nature of the data set: Effect on CYP1A1 protein expression in C57BL/6 mouse liver infected with methicillin-resistant Staphylococcus aureus at 25 mg/kg, ip administered for 12 hrs by Western blot analysis. It counts as functional, organism-based. Background: In western blotting, separated proteins are transferred to a membrane and probed.
In data set [22] the test system is RAW264.7. Description: Induction of phagocytosis in mouse RAW264.7 cells assessed as upregulation of CD204 protein level by flow cytometric analysis. It counts as functional, cell-based.

The source made the active and inactive calls. No cut-off for these calls is given here.

Take `C#Cc1ccccc1/C=C/C(=O)c1ccc2c(c1)n(C)c(=O)n2C`: the outcome in data set [1], in data set [2], in [4], in [5], in data set [6] and in data set [7] was Active. Also, the outcome in data set [11], in data set [12], in data set [13], in [14], in data set [15] and in [16] was Active. Moreover, the outcome in data set [17], in data set [18], in data set [20] and in data set [22] was Active. Besides, the Activity entry in data set [3] and in data set [8] was “Non-toxic” each time. Besides, the outcome in data set [9] and in [21] was inactive. Besides, the fold induction at 12 h, 0.5 µM in data set [10] was 0.07. Besides, the “fold change (FC)” value in data set [19] is given as 0.01.

`Cn1cc(/C=C/C(=O)c2ccc3c(c2)n(C)c(=O)n3C)c2ccccc21`: the outcome in [1], in data set [2], in data set [4], in data set [5], in [6] and in [7] was Active. Also, the outcome in data set [11], in data set [12], in data set [13], in [14], in [15] and in data set [16] was Active. Besides, the outcome in data set [17], in data set [18], in data set [20] and in [22] was Active. The Activity entry in data set [3] and in data set [8] was “Non-toxic” throughout. For the same compound, the outcome in [9] and in data set [21] was inactive. Also, the fold induction at 12 h, 0.5 µM in data set [10] is 0.72. For the same compound, the “fold change (FC)” value in [19] was 0.09.
